In patent US20250325677A1, “STAT6 DEGRADERS” (Gilead Sciences, Inc., priority 2024, published 2025):

Molecular target: STAT6 (Homo sapiens (Human), UniProt P42226)
Assay: STAT6 degrader assay (HiBiT, HeLa LgBiT clone 4.14)
Assay type: cell-based
Conditions: HeLa LgBiT clone 4.14, 4-24 h; for DC50: geometric mean, given for compounds with >80% Emax, read-out: STAT6 degradation DC50; for Emax: read-out: STAT6 degradation Emax (%)
Method: This was a HiBit based assay. A HeLa cell line stably transfected with a small protein, LgBit (Large Bit) was obtained from Promega. These cells express endogenous STAT6. A small 11 amino acid gene sequence (HiBiT) was inserted in the STAT6 gene using CRISPR technology. Once STAT6 protein is expressed in the cells, the HiBiT sequence will bind the LgBit in the cells resulting in a functional NanoBiT protein, giving a luminescent tag to STAT6, see FIG. 2.
Single cell clones were prepared and the clone 4.14 was selected for the assay based on that clone showing high luminescence, high STAT6 phosphorylation upon stimulation with IL-4, and inhibition of luminescence when cells were treated with STAT6 siRNA.
HeLa LgBiT clone 4.14 cells were suspended in DMEM with 10% FCS, 1% Pen/Strep, Na-pyrovate and Hygromycin B, at a concentration of 1.25*105 cells pr mL. 5000 cells were added pr well of a 384 well plate and 20 nL of compound was added by Echo® liquid handler. NN6394A (terfenadine, a toxic compound) was added to control wells at 50 μM concentration to establish the assay window. In these wells the cells are dead which equals 100% degradation of STAT6.
After 4-24 h of incubation at 37° C. under 5% CO2/95% air, 5 μL substrate (Nano-GLO®) was added to the wells and the plates were centrifuged and incubated for 0.5 h.
The luminescence in the wells as a measure of non-degraded STAT6 was measured in a plate reader (BMG Pherastar FSX). The measured DC50 (in nM) was determined.
The dose-response curves Examples 3p1, 3e50, 3e17, and 3e51 are shown below (where percent degradation is plotted vs. test compound concentration in M on a log-scale).

Sequence of STAT6 (P42226 whole entry): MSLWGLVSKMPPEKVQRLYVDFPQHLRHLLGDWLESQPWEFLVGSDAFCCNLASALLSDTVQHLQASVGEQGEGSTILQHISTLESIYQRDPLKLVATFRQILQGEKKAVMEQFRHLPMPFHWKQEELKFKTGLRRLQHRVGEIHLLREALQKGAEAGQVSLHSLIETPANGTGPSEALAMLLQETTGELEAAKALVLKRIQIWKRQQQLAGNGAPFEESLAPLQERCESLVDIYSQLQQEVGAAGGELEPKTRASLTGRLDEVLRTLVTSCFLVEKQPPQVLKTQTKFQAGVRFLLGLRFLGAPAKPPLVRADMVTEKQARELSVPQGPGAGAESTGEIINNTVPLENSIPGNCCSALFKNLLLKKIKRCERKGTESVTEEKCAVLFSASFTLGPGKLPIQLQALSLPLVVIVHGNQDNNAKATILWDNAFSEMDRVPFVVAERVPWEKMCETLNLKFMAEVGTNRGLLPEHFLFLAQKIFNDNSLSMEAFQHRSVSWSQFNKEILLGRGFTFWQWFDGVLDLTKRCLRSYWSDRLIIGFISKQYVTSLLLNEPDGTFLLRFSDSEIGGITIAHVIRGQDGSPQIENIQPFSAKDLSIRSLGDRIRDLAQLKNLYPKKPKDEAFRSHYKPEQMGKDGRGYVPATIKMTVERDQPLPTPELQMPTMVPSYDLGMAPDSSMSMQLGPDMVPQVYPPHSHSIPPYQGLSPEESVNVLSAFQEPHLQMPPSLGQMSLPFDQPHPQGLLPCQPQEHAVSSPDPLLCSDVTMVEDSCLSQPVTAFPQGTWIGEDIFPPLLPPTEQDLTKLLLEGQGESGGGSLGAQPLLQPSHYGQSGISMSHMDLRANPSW

| Compound | DC50 [nM] | further results |
| --- | --- | --- |
| 3-(4-((4-((1-(4-(1-((4-(1H-indazol-5-yl)-1-methyl-1H-pyrrolo[2,3-b]pyridin-2-yl)methyl)-piperidin-4-yl)benzoyl)piperidin-4-yl)methyl)piperidin-1-yl)methyl)-3-(2-methoxyethyl)-2-oxo-2,3-dihydro-1H-benzo[d]imidazol-1-yl)piperidine-2,6-dione [Example 3i2] |  | STAT6 degradation Emax (%): 40-50% |
| CNc1ccc(-c2ccnc3c2cc([C@H](C)N2CCC(c4ccc(C(=O)N5CCC(CN6CCN(Cc7ccc8c(c7)n(C)c(=O)n8[C@@H]7CCC(=O)NC7=O)C[C@@H]6C)CC5)cc4)CC2)n3C)cn1 (single isomer, unassigned) [Example 3h3] | 1.1 |  |
| Cc1cc(C(=O)N2CCC(CN3CCN(Cc4ccc5c(c4)n(C4CC4)c(=O)n5[C@H]4CCC(=O)NC4=O)C[C@@H]3C)CC2)cc(F)c1C1=CCN([C@@H](C)c2cc3c(-c4ccc(N)nc4)ccnc3n2C)CC1 (single isomer, unassigned) [Example 3h16] | 1.6 |  |
| Cc1cc(C(=O)N2CCC(CN3CCN(Cc4ccc5c(c4)n(C4CC4)c(=O)n5[C@@H]4CCC(=O)NC4=O)C[C@@H]3C)CC2)cc(F)c1C1=CCN([C@@H](C)c2cc3c(-c4ccc(N)nc4)ccnc3n2C)CC1 (single isomer, unassigned) [Example 3h17] | 0.8 |  |
| Cn1c(CN2CCC(c3ccc(C(=O)N4CCC(OCC#Cc5cccc6c5n(C)c(=O)n6C5CCC(=O)NC5=O)CC4)cc3)CC2)cc2c(-c3ccc4[nH]ncc4c3)ccnc21 (stereo not shown) [Example 3a1, 3-(4-(3-((1-(4-(1-((4-(1H-indazol-5-yl)-1-methyl-1H-pyrrolo[2,3-b]pyridin-2-yl)methyl)piperidin-4-yl)benzoyl)piperidin-4-yl)oxy)prop-1-yn-1-yl)-3-methyl-2-oxo-2,3-dihydro-1H-benzo[d]imidazol-1-yl)piperidine-2,6-dione] | 4.9 |  |
| Cn1c(CN2CCC(c3ccc(C(=O)N4CCC(OCC#Cc5ccc6c(c5)n(C)c(=O)n6C5CCC(=O)NC5=O)CC4)cc3)CC2)cc2c(-c3ccc4[nH]ncc4c3)ccnc21 (stereo not shown) [Example 3b1, 3-(5-(3-((1-(4-(1-((4-(1H-indazol-5-yl)-1-methyl-1H-pyrrolo[2,3-b]pyridin-2-yl)methyl)piperidin-4-yl)benzoyl)piperidin-4-yl)oxy)prop-1-yn-1-yl)-3-methyl-2-oxo-2,3-dihydro-1H-benzo[d]imidazol-1-yl)piperidine-2,6-dione] | 2.4 |  |
| Cn1c(CN2CCC(c3ccc(C(=O)N4CCC(CN5CCC(c6ccc7c(c6)n(C)c(=O)n7C6CCC(=O)NC6=O)CC5)CC4)cc3)CC2)cc2c(-c3ccc4[nH]ncc4c3)ccnc21 (stereo not shown) [Example 3d1, 3-(5-(1-((1-(4-(1-((4-(1H-indazol-5-yl)-1-methyl-1H-pyrrolo[2,3-b]pyridin-2-yl)methyl)piperidin-4-yl)benzoyl)piperidin-4-yl)methyl)piperidin-4-yl)-3-methyl-2-oxo-2,3-dihydro-1H-benzo[d]imidazol-1-yl)piperidine-2,6-dione] |  | Emax: 50 to 60% |
| Cn1c(CN2CCC(c3ccc(C(=O)N4CCC(CN5CCN(Cc6ccc7c(c6)n(C)c(=O)n7C6CCC(=O)NC6=O)CC5)CC4)cc3)CC2)cc2c(-c3ccc4[nH]ncc4c3)ccnc21 (stereo not shown) [Example 3e1, 3-(5-((4-((1-(4-(1-((4-(1H-indazol-5-yl)-1-methyl-1H-pyrrolo[2,3-b]pyridin-2-yl)methyl)piperidin-4-yl)benzoyl)piperidin-4-yl)methyl)piperazin-1-yl)methyl)-3-methyl-2-oxo-2,3-dihydro-1H-benzo[d]imidazol-1-yl)piperidine-2,6-dione] | 0.6 |  |
| Cn1c(CN2CCC(c3ccc(C(=O)N4CCC(CN5CCN(Cc6ccc7c(c6)n(C6CC6)c(=O)n7C6CCC(=O)NC6=O)CC5)CC4)cc3)CC2)cc2c(-c3ccc4[nH]ncc4c3)ccnc21 (stereo not shown) [Example 3e6, 3-(5-((4-((1-(4-(1-((4-(1H-indazol-5-yl)-1-methyl-1H-pyrrolo[2,3-b]pyridin-2-yl)methyl)piperidin-4-yl)benzoyl)piperidin-4-yl)methyl)piperazin-1-yl)methyl)-3-cyclopropyl-2-oxo-2,3-dihydro-1H-benzo[d]imidazol-1-yl)piperidine-2,6-dione] | 1.4 |  |
| COCCn1c(=O)n(C2CCC(=O)NC2=O)c2ccc(CN3CCN(CC4CCN(C(=O)c5ccc(C6CCN(Cc7cc8c(-c9ccc(N)nc9)ccnc8n7C)CC6)cc5)CC4)CC3)cc21 (stereo not shown) [Example 3e7, 3-(5-((4-((1-(4-(1-((4-(6-aminopyridin-3-yl)-1-methyl-1H-pyrrolo[2,3-b]pyridin-2-yl)methyl)piperidin-4-yl)benzoyl)piperidin-4-yl)methyl)piperazin-1-yl)methyl)-3-(2-methoxyethyl)-2-oxo-2,3-dihydro-1H-benzo[d]imidazol-1-yl)piperidine-2,6-dione] | 9 |  |
| C[C@@H]1CN(Cc2ccc3c(c2)n(C)c(=O)n3C2CCC(=O)NC2=O)CCN1CC1CCN(C(=O)c2ccc(C3CCN(Cc4cc5c(-c6ccc(N)nc6)ccnc5n4C)CC3)cc2)CC1 (stereo partly drawn) [Example 3e8, 3-(5-(((R)-4-((1-(4-(1-((4-(6-aminopyridin-3-yl)-1-methyl-1H-pyrrolo[2,3-b]pyridin-2-yl)methyl)piperidin-4-yl)benzoyl)piperidin-4-yl)methyl)-3-methylpiperazin-1-yl)methyl)-3-methyl-2-oxo-2,3-dihydro-1H-benzo[d]imidazol-1-yl)piperidine-2,6-dione] |  | Emax: 50 to 60% |
| C[C@@H](c1cc2c(-c3ccc(N)nc3)ccnc2n1C)N1CCC(c2ccc(C(=O)N3CCC(CN4CCN(Cc5ccc6c(c5)n(C5CC5)c(=O)n6C5CCC(=O)NC5=O)CC4)CC3)cc2)CC1 (stereo partly drawn) [Example 3e10, 3-(5-((4-((1-(4-(1-((S)-1-(4-(6-aminopyridin-3-yl)-1-methyl-1H-pyrrolo[2,3-b]pyridin-2-yl)ethyl)piperidin-4-yl)benzoyl)piperidin-4-yl)methyl)piperazin-1-yl)methyl)-3-cyclopropyl-2-oxo-2,3-dihydro-1H-benzo[d]imidazol-1-yl)piperidine-2,6-dione] |  | Emax: < 20% |
| C[C@@H](c1cc2c(-c3ccc4[nH]ncc4c3)ccnc2n1C)N1CCC(c2ccc(C(=O)N3CCC(CN4CCN(Cc5ccc6c(c5)n(C5CC5)c(=O)n6C5CCC(=O)NC5=O)CC4)CC3)cc2)CC1 (stereo partly drawn) [Example 3e11, 3-(5-((4-((1-(4-(1-((S)-1-(4-(1H-indazol-5-yl)-1-methyl-1H-pyrrolo[2,3-b]pyridin-2-yl)ethyl)piperidin-4-yl)benzoyl)piperidin-4-yl)methyl)piperazin-1-yl)methyl)-3-cyclo-propyl-2-oxo-2,3-dihydro-1H-benzo[d]imidazol-1-yl)piperidine-2,6-dione] | 0.9 |  |
| Cc1cc(C(=O)N2CCC(CN3CCN(Cc4ccc5c(c4)n(C)c(=O)n5C4CCC(=O)NC4=O)CC3)CC2)cc(C)c1C1=CCN(Cc2cc3c(-c4ccc(N)nc4)ccnc3n2C)CC1 (stereo not shown) [Example 3e12, 3-(5-((4-((1-(4-(1-((4-(6-aminopyridin-3-yl)-1-methyl-1H-pyrrolo[2,3-b]pyridin-2-yl)methyl)-1,2,3,6-tetrahydropyridin-4-yl)-3,5-dimethylbenzoyl)piperidin-4-yl)methyl)piperazin-1-yl)methyl)-3-methyl-2-oxo-2,3-dihydro-1H-benzo[d]imidazol-1-yl)piperidine-2,6-dione] | 0.9 |  |
| Cn1c(CN2CCC(c3ccc(C(=O)N4CCC(CN5CCN(Cc6ccc7c(c6F)n(C)c(=O)n7C6CCC(=O)NC6=O)CC5)CC4)cc3)CC2)cc2c(-c3ccc(N)nc3)ccnc21 (stereo not shown) [Example 3e14, 3-(5-((4-((1-(4-(1-((4-(6-aminopyridin-3-yl)-1-methyl-1H-pyrrolo[2,3-b]pyridin-2-yl)methyl)piperidin-4-yl)benzoyl)piperidin-4-yl)methyl)piperazin-1-yl)methyl)-4-fluoro-3-methyl-2-oxo-2,3-dihydro-1H-benzo[d]imidazol-1-yl)piperidine-2,6-dione] | 1.5 |  |
| CC(C)[C@H]1CN(Cc2ccc3c(c2)n(C)c(=O)n3C2CCC(=O)NC2=O)CCN1CC1CCN(C(=O)c2ccc(C3CCN([C@@H](C)c4cc5c(-c6ccc(N)nc6)ccnc5n4C)CC3)cc2)CC1 (stereo partly drawn) [Example 3e21, 3-(5-(((S)-4-((1-(4-(1-((S)-1-(4-(6-aminopyridin-3-yl)-1-methyl-1H-pyrrolo[2,3-b]pyridin-2-yl)ethyl)piperidin-4-yl)benzoyl)piperidin-4-yl)methyl)-3-iso-propylpiperazin-1-yl)methyl)-3-methyl-2-oxo-2,3-dihydro-1H-benzo[d]imidazol-1-yl)piperidine-2,6-dione] | 2.8 |  |
